ChEMBL document CHEMBL1201862, “PubChem BioAssay data set” (2004)
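A five-concentration, 48-hour dose response in 96-well plates underlies each endpoint, interpolated linearly between surrounding concentrations. At the GI50, growth is halved.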 Calls of active or inactive are those of the source. No stated cut-off is given here; in the data, active = GI50 up to about 1.1 µM and inactive = higher.

Key:
Assay in all cases: DTP human tumour cell line panel, 48 h
TK-10 = tested on: TK-10
NCI-H23 = tested on: NCI-H23
SK-MEL-28 = tested on: SK-MEL-28
NCI-H460 = tested on: NCI-H460
OVCAR-5 = tested on: OVCAR-5
A549 = tested on: A549
M14 = tested on: M14
RPMI-8226 = tested on: RPMI-8226
COLO 205 = tested on: COLO 205
Malme-3M = tested on: Malme-3M
786-0 = tested on: 786-0
SW-620 = tested on: SW-620
CAKI-1 = tested on: CAKI-1
IGROV-1 = tested on: IGROV-1
SN12C = tested on: SN12C
CCRF-CEM = tested on: CCRF-CEM
MOLT-4 = tested on: MOLT-4
SR = tested on: SR

Measured: GI50

Cc1ccc(NC(=O)C(=O)Cc2nc3ccccc3o2)c(C)c1
inactive: TK-10 > 100 µM | NCI-H23 > 100 µM | SK-MEL-28 > 100 µM | NCI-H460 > 100 µM | OVCAR-5 > 100 µM | A549 > 100 µM | M14 > 100 µM | RPMI-8226 > 100 µM | COLO 205 > 100 µM | Malme-3M > 100 µM | 786-0 > 100 µM | SW-620 > 100 µM | CAKI-1 > 100 µM | IGROV-1 > 100 µM | SN12C > 100 µM

O=c1/c(=C/c2c(O)ccc3ccccc23)sc2nc3ccccc3n12
inactive: TK-10 > 100 µM | NCI-H23 > 100 µM | SK-MEL-28 > 100 µM | NCI-H460 > 100 µM | OVCAR-5 > 100 µM | A549 > 100 µM | CCRF-CEM > 100 µM | M14 > 100 µM | COLO 205 > 100 µM | Malme-3M > 100 µM | 786-0 > 100 µM | SW-620 > 100 µM | CAKI-1 > 100 µM | IGROV-1 > 100 µM | SN12C > 100 µM

O=[PH](O)c1ccsc1
inactive: TK-10 > 100 µM | NCI-H23 > 100 µM | SK-MEL-28 > 100 µM | NCI-H460 > 100 µM | A549 > 100 µM | CCRF-CEM > 100 µM | M14 > 100 µM | RPMI-8226 > 100 µM | COLO 205 > 100 µM | 786-0 > 100 µM | SW-620 > 100 µM | MOLT-4 > 100 µM | CAKI-1 52.1 µM | IGROV-1 > 100 µM | SN12C > 100 µM

COc1ccc(/C=C/CN(C)CCc2ccccc2)cc1OC
inactive: TK-10 46 µM | NCI-H23 > 100 µM | SK-MEL-28 > 100 µM | OVCAR-5 41.1 µM | A549 > 100 µM | RPMI-8226 59.3 µM | COLO 205 52 µM | Malme-3M 62.4 µM | 786-0 > 100 µM | SW-620 97.3 µM | MOLT-4 40.6 µM | IGROV-1 > 100 µM | SN12C 66.1 µM

O=C(CCc1n[nH]c(=S)o1)Nc1cc(Cl)c(Cl)cc1Cl
inactive: TK-10 42.5 µM | NCI-H23 > 100 µM | SK-MEL-28 60.1 µM | NCI-H460 46.6 µM | OVCAR-5 54.3 µM | A549 67.8 µM | CCRF-CEM 31.6 µM | M14 83.6 µM | RPMI-8226 20.5 µM | COLO 205 31.8 µM | Malme-3M > 100 µM | 786-0 22.5 µM | SW-620 12.9 µM | MOLT-4 45 µM | CAKI-1 27.2 µM | IGROV-1 34.6 µM | SN12C > 100 µM

O=C1CCC2CCc3cccc4oc1c2c34 (stereo not drawn)
inactive: TK-10 > 100 µM | NCI-H23 > 100 µM | SK-MEL-28 > 100 µM | NCI-H460 > 100 µM | A549 > 100 µM | CCRF-CEM > 100 µM | M14 > 100 µM | RPMI-8226 > 100 µM | COLO 205 > 100 µM | 786-0 > 100 µM | SW-620 > 100 µM | MOLT-4 96.2 µM | CAKI-1 > 100 µM | IGROV-1 > 100 µM | SN12C > 100 µM

Cc1ccc(S(=O)(=O)n2c(-c3ccccc3)c(-c3ccccc3)c3ccccc32)cc1
inactive: TK-10 > 100 µM | NCI-H23 17.7 µM | SK-MEL-28 > 100 µM | NCI-H460 > 100 µM | OVCAR-5 > 100 µM | A549 > 100 µM | CCRF-CEM > 100 µM | SR 7.31 µM | M14 > 100 µM | RPMI-8226 23.1 µM | COLO 205 > 100 µM | Malme-3M > 100 µM | 786-0 > 100 µM | SW-620 > 100 µM | MOLT-4 > 100 µM | IGROV-1 > 100 µM | SN12C > 100 µM

CCOc1cc(/C=C/C=C/C=C/c2ccc(N(C)C)cc2)[s+]c2ccccc12
inactive: TK-10 40.4 µM | NCI-H23 29.9 µM | SK-MEL-28 19.1 µM | NCI-H460 46.9 µM | OVCAR-5 > 100 µM | A549 21 µM | CCRF-CEM 4.88 µM | M14 19.7 µM | RPMI-8226 6.78 µM | COLO 205 41.1 µM | Malme-3M 22.9 µM | 786-0 22.5 µM | SW-620 30.3 µM | MOLT-4 5.5 µM | CAKI-1 26.5 µM | IGROV-1 37.5 µM | SN12C 21.2 µM

COCCNC(=O)C1C(=O)C(=O)N(CCOC)C1=O (stereo not drawn)
inactive: TK-10 > 100 µM | NCI-H23 > 100 µM | SK-MEL-28 > 100 µM | OVCAR-5 > 100 µM | A549 > 100 µM | CCRF-CEM > 100 µM | SR > 100 µM | M14 > 100 µM | COLO 205 > 100 µM | Malme-3M > 100 µM | 786-0 > 100 µM | SW-620 > 100 µM | CAKI-1 > 100 µM | IGROV-1 > 100 µM | SN12C > 100 µM

O=C(O)CCSC(=O)Nc1cccc([N+](=O)[O-])c1
inactive: TK-10 > 100 µM | NCI-H23 > 100 µM | SK-MEL-28 > 100 µM | NCI-H460 > 100 µM | A549 > 100 µM | CCRF-CEM > 100 µM | SR > 100 µM | M14 > 100 µM | RPMI-8226 > 100 µM | COLO 205 > 100 µM | 786-0 > 100 µM | SW-620 92.9 µM | MOLT-4 43.7 µM | CAKI-1 71.1 µM | IGROV-1 72.6 µM | SN12C 94.6 µM

CCOc1ccc([Se][Se]c2ccc(OCC)cc2)cc1
inactive: TK-10 > 100 µM | NCI-H23 11.5 µM | SK-MEL-28 > 100 µM | NCI-H460 > 100 µM | OVCAR-5 18.8 µM | A549 > 100 µM | SR > 100 µM | M14 > 100 µM | RPMI-8226 28.1 µM | COLO 205 > 100 µM | Malme-3M > 100 µM | 786-0 > 100 µM | SW-620 > 100 µM | CAKI-1 21 µM | IGROV-1 94.4 µM | SN12C > 100 µM

CCOC(=O)C(NC(=O)c1nc[nH]c1[N+](=O)[O-])C(C)C (stereo not drawn)
inactive: NCI-H23 31.3 µM | SK-MEL-28 > 100 µM | NCI-H460 50.6 µM | A549 > 100 µM | CCRF-CEM 47.2 µM | SR 61.1 µM | M14 > 100 µM | RPMI-8226 72.6 µM | COLO 205 82 µM | Malme-3M > 100 µM | 786-0 71.1 µM | SW-620 > 100 µM | MOLT-4 72.4 µM | CAKI-1 > 100 µM | IGROV-1 > 100 µM | SN12C > 100 µM

CCOC(=O)C1Sc2ccccc2N=C1C (stereo not drawn)
inactive: TK-10 > 100 µM | NCI-H23 > 100 µM | SK-MEL-28 > 100 µM | NCI-H460 > 100 µM | OVCAR-5 > 100 µM | A549 > 100 µM | SR > 100 µM | RPMI-8226 > 100 µM | COLO 205 > 100 µM | Malme-3M > 100 µM | 786-0 > 100 µM | SW-620 > 100 µM | MOLT-4 > 100 µM | IGROV-1 > 100 µM | SN12C > 100 µM

COC(=O)C(=O)C(C(=O)OC)C(=O)C(=O)Nc1cc(Cl)c(C)cc1S(=O)(=O)O (stereo not drawn)
inactive: TK-10 > 100 µM | NCI-H23 > 100 µM | SK-MEL-28 > 100 µM | NCI-H460 > 100 µM | OVCAR-5 > 100 µM | A549 > 100 µM | CCRF-CEM > 100 µM | SR > 100 µM | M14 > 100 µM | COLO 205 > 100 µM | Malme-3M > 100 µM | 786-0 > 100 µM | SW-620 > 100 µM | MOLT-4 > 100 µM | CAKI-1 > 100 µM | IGROV-1 > 100 µM | SN12C > 100 µM

O=C(COc1ccccc1Cl)N1N=C(c2ccc(Cl)cc2)CC1(O)c1ccccc1 (stereo not drawn)
inactive: TK-10 > 100 µM | NCI-H23 > 100 µM | SK-MEL-28 > 100 µM | NCI-H460 > 100 µM | OVCAR-5 > 100 µM | A549 > 100 µM | SR > 100 µM | M14 > 100 µM | RPMI-8226 > 100 µM | COLO 205 > 100 µM | Malme-3M > 100 µM | 786-0 > 100 µM | SW-620 > 100 µM | MOLT-4 > 100 µM | CAKI-1 > 100 µM | IGROV-1 > 100 µM | SN12C > 100 µM

COc1cc2c(cc1O)[C@H](C)C(c1ccccc1OC)O2 (stereo partly drawn)
inactive: TK-10 20.3 µM | NCI-H23 6.31 µM | SK-MEL-28 6.41 µM | NCI-H460 2.08 µM | OVCAR-5 75.2 µM | A549 5.33 µM | CCRF-CEM 4.21 µM | M14 3.45 µM | RPMI-8226 2.64 µM | COLO 205 6.97 µM | Malme-3M 4.14 µM | 786-0 5.61 µM | SW-620 3.27 µM | MOLT-4 4.65 µM | CAKI-1 5.98 µM | IGROV-1 5.24 µM

O=c1c(O)c(-c2ccc(O)c(O)c2)oc2cc(O)cc(O)c12 [QUERCETIN]
inactive: TK-10 > 100 µM | SK-MEL-28 94.6 µM | NCI-H460 36.6 µM | OVCAR-5 > 100 µM | A549 > 100 µM | CCRF-CEM 30.8 µM | SR 35.5 µM | M14 > 100 µM | COLO 205 33.6 µM | Malme-3M > 100 µM | 786-0 59.8 µM | SW-620 20.3 µM | MOLT-4 76.9 µM | CAKI-1 > 100 µM | IGROV-1 59.3 µM | SN12C > 100 µM
